Test results reported in patent US20260297080A1, “BICYCLIC COMPOUNDS AS CDK INHIBITORS” (BeOne Medicines I GmbH, priority 2022, published 2026).

How the values were obtained:
CDK2/Cyclin E1 [1] = target: T1, CDK2/Cyclin E1 (Homo sapiens, UniProt P24941); assay: CDK2/Cyclin E1 Biochemical Assay (TR-FRET), 1 mM ATP; conditions: 0.15 μM Rb (Ser780)-biotin substrate, pH7.0, 60 min preincubation, 90 min reaction, room temperature
Description: (§1) CDK2/Cyclin E1 and CDK1/Cyclin B1 Biochemical Assays
(§2) Compounds disclosed herein were tested for inhibition of CDK2/Cyclin E1 or CDK1/Cyclin B1 kinase in an assay based on the time-resolved fluorescence-resonance energy transfer (TR-FRET) methodology. The assay was carried out in 384-well low volume black plates in a reaction mixture containing CDK2/Cyclin E1 or CDK1/Cyclin B1, 1 mM ATP for CDK2/Cyclin E1 and CDK1/Cyclin B1, 0.15 μM Rb (Ser780)-biotin substrate and 0-10 μM compound in buffer containing 50 mM HEPES pH7.0, 0.02% NaN3, 0.01% BSA, 0.1 mM Orthovanadate, 50 mM MgCl2, 1 mM DTT and 0.005% Tween-20. The kinase was incubated with compound for 60 minutes at room temperature and the reaction was initiated by the addition of ATP and Rb (Ser780)-biotin substrate. After reaction at room temperature for 90 minutes, an equal volume of stop/detection solution was added according to the manufacture's instruction (Cisbio Bioassays). The stop/detection solution contained Streptavidin-XL665 and Anti-pRb (Ser780) mAb-Eu Cryptate in Detection buffer (Cisbio Bioassays). Plates were incubated at room temperature for 60 minutes, and the TR-FRET signals (ex337 nm, em665 nm/620 nm) were recorded on a PHERAstar FSX plate reader (BMG Labtech). The inhibition percentage of CDK2/Cyclin E1 or CDK1/Cyclin B1 kinase activity in presence of increasing concentrations of compounds was calculated based on the ratio of fluorescence at 665 nm to that at 620 nm. The IC50 for each compound was derived from fitting the data to the four-parameter logistic equation by Dotmatics.

CDK1/Cyclin B1 [2] = target: T2, CDK1/Cyclin B1 (Homo sapiens, UniProt P06493); assay: CDK1/Cyclin B1 Biochemical Assay (TR-FRET), 1 mM ATP; conditions: 0.15 μM Rb (Ser780)-biotin substrate, pH7.0, 60 min preincubation, 90 min reaction, room temperature
Description: as §1, §2

CDK1/Cyclin B1 [3] = target: T2, CDK1/Cyclin B1; assay: CDK1/Cyclin B1 Biochemical Assay (TR-FRET), 0.015 mM ATP; conditions: 0.15 μM Rb (Ser780)-biotin substrate, pH7.0, 60 min preincubation, 120 min reaction, room temperature
How it was run: (§3)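 Phosphorylation of a biotin-tagged Rb Ser780 peptide (0.15 μM) is measured by time-resolved FRET between a europium-labelled phospho-specific antibody and streptavidin-XL665. Compound (0–10 μM) sits with enzyme 60 min first; the kinase reaction then proceeds 120 min at room temperature, pH 7.0.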

CDK2/Cyclin E1 [4] = target: T1, CDK2/Cyclin E1; assay: CDK2/Cyclin E1 Biochemical Assay (TR-FRET), 0.060 mM ATP; conditions: 0.15 μM Rb (Ser780)-biotin substrate, pH7.0, 60 min preincubation, 120 min reaction, room temperature
How it was run: as §3

T2 sequence (P06493 whole entry): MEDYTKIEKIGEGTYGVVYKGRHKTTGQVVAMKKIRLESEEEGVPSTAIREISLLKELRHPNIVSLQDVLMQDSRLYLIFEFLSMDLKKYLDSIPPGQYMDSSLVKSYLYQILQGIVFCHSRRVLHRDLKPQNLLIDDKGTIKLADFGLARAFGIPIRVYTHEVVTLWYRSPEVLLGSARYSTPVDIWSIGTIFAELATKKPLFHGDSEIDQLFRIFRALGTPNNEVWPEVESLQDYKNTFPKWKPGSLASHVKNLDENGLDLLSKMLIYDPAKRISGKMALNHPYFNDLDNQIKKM
T2 sequence (P14635 whole entry partner): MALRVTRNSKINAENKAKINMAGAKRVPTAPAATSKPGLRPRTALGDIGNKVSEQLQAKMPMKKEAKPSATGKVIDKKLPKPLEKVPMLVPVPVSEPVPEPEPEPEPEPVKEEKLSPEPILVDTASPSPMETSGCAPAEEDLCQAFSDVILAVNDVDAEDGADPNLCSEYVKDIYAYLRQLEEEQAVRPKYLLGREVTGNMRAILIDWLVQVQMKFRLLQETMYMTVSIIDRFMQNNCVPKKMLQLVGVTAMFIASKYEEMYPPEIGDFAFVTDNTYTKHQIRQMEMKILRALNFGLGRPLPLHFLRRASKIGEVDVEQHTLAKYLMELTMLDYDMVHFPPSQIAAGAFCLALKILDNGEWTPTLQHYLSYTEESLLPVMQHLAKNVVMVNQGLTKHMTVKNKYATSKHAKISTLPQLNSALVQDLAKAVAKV

Structure (SMILES) | IC50 (CDK2/Cyclin E1 [1]) [nM] | IC50 (CDK1/Cyclin B1 [2]) [nM] | IC50 (CDK1/Cyclin B1 [3]) [nM] | IC50 (CDK2/Cyclin E1 [4]) [nM]
CC(C)(CO)NC(=O)O[C@H]1CC[C@@H](c2cc(Nc3ccc4c(c3F)CN(C3CC3)S4(=O)=O)n[nH]2)C1 (single isomer, unassigned) [Example 359b, cis-3-(3-((2-cyclopropyl-4-fluoro-1,1-dioxido-2,3-dihydrobenzo[d]isothiazol-5-yl)amino)-1H-pyrazol-5-yl)cyclopentyl(1-hydroxy-2-methylpropan-2-yl)carbamate] | 7.1 | 2890 |  | 
[2H]C([2H])([2H])C1c2cc(Nc3cc([C@@H]4CC[C@H](OC(=O)NC5(C)CC5)C4)[nH]n3)cc(F)c2N(C([2H])([2H])[2H])S1(=O)=O (relative stereo) [Example 287, cis-3-(3-((7-fluoro-1,3-bis(methyl-d3)-2,2-dioxido-1,3-dihydrobenzo[c]isothiazol-5-yl)amino)-1H-pyrazol-5-yl)cyclopentyl(1-methylcyclopropyl)carbamate] |  |  | 77 | 7.7
CC(C)NC(=O)O[C@H]1CC[C@@H](c2cc(Nc3ccc4c(c3F)CN(C3CCN(C)C3)S4(=O)=O)n[nH]2)C1 (relative stereo) [Example 70, cis-3-(3-((4-fluoro-2-(1-methylpyrrolidin-3-yl)-1,1-dioxido-2,3-dihydrobenzo[d]isothiazol-5-yl)amino-1H-pyrazol-5-yl)cyclopentyl isopropylcarbamate] |  |  | 503 | 11
CC1(NC(=O)O[C@H]2CC[C@@H](c3cc(Nc4ccc5c(c4F)CNS5(=O)=O)n[nH]3)C2)CC1 (single isomer, unassigned) [Example 140a, cis-3-(3-((4-fluoro-1,1-dioxido-2,3-dihydrobenzo[d]isothiazol-5-yl)amino)-1H-pyrazol-5-yl)cyclopentyl(1-methylcyclopropyl)carbamate] |  |  | 97 | 1.1
CC1(NC(=O)O[C@H]2CC[C@@H](c3cc(Nc4ccc5c(c4F)CNS5(=O)=O)n[nH]3)C2)CCOC1 (single isomer, unassigned) [Example 162a, cis-3-(3-((4-fluoro-1,1-dioxido-2,3-dihydrobenzo[d]isothiazol-5-yl)amino)-1H-pyrazol-5-yl)cyclopentyl(3-methyltetrahydrofuran-3-yl)carbamate] |  |  | 456 | 3.4
CC(C)NC(=O)O[C@H]1CC[C@@H](c2cc(Nc3ccc4c(c3)CS(=O)(=O)N4CC3CN(C)C3)n[nH]2)C1 (relative stereo) [Example 213, cis-3-(3-((1-((1-methylazetidin-3-yl)methyl)-2,2-dioxido-1,3-dihydrobenzo[c]isothiazol-5-yl)amino)-1H-pyrazol-5-yl)cyclopentyl isopropylcarbamate] |  |  | 30 | 2.7
CC(C)NC(=O)O[C@H]1CC[C@@H](c2cc(Nc3ccc4c(c3F)CNS4(=O)=O)n[nH]2)C1 (single isomer, unassigned) [Example 9b, cis-3-(3-((4-fluoro-1,1-dioxido-2,3-dihydrobenzo[d]isothiazol-5-yl)amino)-1H-pyrazol-5-yl)cyclopentyl isopropylcarbamate] |  |  | 94 | 2.5
CC(C)NC(=O)O[C@H]1CC[C@@H](c2cc(Nc3cc4c(cc3F)S(=O)(=O)N(CCO)C4)n[nH]2)C1 (relative stereo) [Example 47, cis-3-(3-((6-fluoro-2-(2-hydroxyethyl)-1,1-dioxido-2,3-dihydrobenzo[d]isothiazol-5-yl)amino)-1H-pyrazol-5-yl)cyclopentyl isopropylcarbamate] |  |  | 7380 | 158
CC(C)NC(=O)O[C@H]1CC[C@@H](c2cc(Nc3ccc4c(c3)C(=O)NS4(=O)=O)n[nH]2)C1 (relative stereo) [Example 17, cis-3-(3-((1,1-dioxido-3-oxo-2,3-dihydrobenzo[d]isothiazol-5-yl)amino)-1H-pyrazol-5-yl)cyclopentyl isopropylcarbamate] |  |  | 470 | 11.8
[2H]C([2H])([2H])N1Cc2c(ccc(Nc3cc([C@@H]4CC[C@H](OC(=O)NC5(C)CC5)C4)[nH]n3)c2F)S1(=O)=O (single isomer, unassigned) [Example 132a, cis-3-(3-((4-fluoro-2-(methyl-d3)-1,1-dioxido-2,3-dihydrobenzo[d]isothiazol-5-yl)amino)-1H-pyrazol-5-yl)cyclopentyl(1-methylcyclopropyl)carbamate] |  |  | 206 | 2.2
CC1NS(=O)(=O)c2ccc(Nc3cc([C@@H]4CC[C@H](OC(=O)NC5(C)CC5)C4)[nH]n3)cc21 (single isomer, unassigned) [Example 322a, cis-3-(3-((3-methyl-1,1-dioxido-2,3-dihydrobenzo[d]isothiazol-5-yl)amino)-1H-pyrazol-5-yl)cyclopentyl(1-methylcyclopropyl)carbamate] |  |  | 17 | 1.1

The next lines start with the values.

IC50 (CDK2/Cyclin E1 [1]) [nM] | IC50 (CDK1/Cyclin B1 [2]) [nM] | IC50 (CDK1/Cyclin B1 [3]) [nM] | IC50 (CDK2/Cyclin E1 [4]) [nM] | Structure (SMILES)
1.5 | 122 |  |  | CC1(C)CCCN1C(=O)O[C@H]1CC[C@@H](c2cc(Nc3ccc4c(c3F)CS(=O)(=O)N4)n[nH]2)C1 (relative stereo) [Example 436, cis-3-(3-((4-fluoro-2,2-dioxido-1,3-dihydrobenzo[c]isothiazol-5-yl)amino)-1H-pyrazol-5-yl)cyclopentyl 2,2-dimethylpyrrolidine-1-carboxylate]
1.8 | 1110 |  |  | O=C(NC12CCC(O)(CC1)CC2)O[C@H]1CC[C@@H](c2cc(Nc3cc4c(cc3F)S(=O)(=O)NC4)n[nH]2)C1 (relative stereo) [Example 457, cis-3-(3-((6-fluoro-1,1-dioxido-2,3-dihydrobenzo[d]isothiazol-5-yl)amino)-1H-pyrazol-5-yl)cyclopentyl(4-hydroxybicyclo[2.2.2]octan-1-yl)carbamate]
6 | 1970 |  |  | O=C(NC1CC1)O[C@H]1CC[C@@H](c2cc(Nc3ccc4c(c3F)CS(=O)(=O)N4)n[nH]2)C1 (relative stereo) [Example 459, cis-3-(3-((4-fluoro-2,2-dioxido-1,3-dihydrobenzo[c]isothiazol-5-yl)amino)-1H-pyrazol-5-yl)cyclopentyl cyclopropylcarbamate]
21 | 4850 |  |  | O=C(NC1CCOC1)O[C@H]1CC[C@@H](c2cc(Nc3ccc4c(c3)CS(=O)(=O)N4)n[nH]2)C1 (relative stereo) [Example 428, cis-3-(3-((2,2-dioxido-1,3-dihydrobenzo[c]isothiazol-5-yl)amino)-1H-pyrazol-5-yl)cyclopentyl(tetrahydrofuran-3-yl)carbamate]
1.5 | 863 |  |  | CC(C)(CO)NC(=O)O[C@H]1CC[C@@H](c2cc(Nc3ccc4c(c3F)CS(=O)(=O)N4C3CC3)n[nH]2)C1 (single isomer, unassigned) [Example 363b, cis-3-(3-((1-cyclopropyl-4-fluoro-2,2-dioxido-1,3-dihydrobenzo[c]isothiazol-5-yl)amino)-1H-pyrazol-5-yl)cyclopentyl(1-hydroxy-2-methylpropan-2-yl)carbamate]
16 | 7870 |  |  | CC(C)(CO)NC(=O)O[C@H]1CC[C@@H](c2cc(Nc3cc4c(cc3F)S(=O)(=O)NC4)n[nH]2)C1 (relative stereo) [Example 444, cis-3-(3-((6-fluoro-1,1-dioxido-2,3-dihydrobenzo[d]isothiazol-5-yl)amino)-1H-pyrazol-5-yl)cyclopentyl(1-hydroxy-2-methylpropan-2-yl)carbamate]
2.7 | 252 |  |  | CC(C)(C)NC(=O)O[C@H]1CC[C@@H](c2cc(Nc3ccc4c(c3F)CS(=O)(=O)N4)n[nH]2)C1 (relative stereo) [Example 423, cis-3-(3-((4-fluoro-2,2-dioxido-1,3-dihydrobenzo[c]isothiazol-5-yl)amino)-1H-pyrazol-5-yl)cyclopentyl tert-butylcarbamate]
1.1 | 65 |  |  | O=C(NC12CC(C1)C2)O[C@H]1CC[C@@H](c2cc(Nc3ccc4c(c3F)CS(=O)(=O)N4)n[nH]2)C1 (relative stereo) [Example 448, cis-3-(3-((4-fluoro-2,2-dioxido-1,3-dihydrobenzo[c]isothiazol-5-yl)amino)-1H-pyrazol-5-yl)cyclopentyl bicyclo[1.1.1]pentan-1-ylcarbamate]
